The CheMixHub ionic liquid set

Experiment: xn = mol fraction of the nth substance listed

CCCC[n+]1ccn(C)c1.F[B-](F)(F)F + O
Conditions	electrical conductivity [S/m]	viscosity [mPa·s]
288.15 K, 100 kPa, x1 = 5.584e-05	0.0319	–
288.15 K, 100.3 kPa, x1 = 0.0005439	–	1.148
288.15 K, 100.3 kPa, x1 = 0.0009901	–	1.163
288.15 K, 100.3 kPa, x1 = 0.003018	–	1.205
288.15 K, 100.3 kPa, x1 = 0.00501	–	1.247
288.15 K, 100.3 kPa, x1 = 0.006973	–	1.283
288.15 K, 100.3 kPa, x1 = 0.009052	–	1.332
288.15 K, 100.3 kPa, x1 = 0.01199	–	1.394
288.15 K, 100.3 kPa, x1 = 0.01499	–	1.46
288.15 K, 100.3 kPa, x1 = 0.017	–	1.506
293.15 K, 100 kPa, x1 = 0.0003603	–	1.03
293.15 K, 100 kPa, x1 = 0.0003729	–	1.03
293.15 K, 100 kPa, x1 = 0.0007203	–	1.062
293.15 K, 100 kPa, x1 = 0.0007257	–	1.062
293.15 K, 100 kPa, x1 = 0.00108	–	1.093
293.15 K, 100 kPa, x1 = 0.0011	–	1.093
293.15 K, 100.3 kPa, x1 = 0.0005439	–	1.012
293.15 K, 100.3 kPa, x1 = 0.0009901	–	1.024
293.15 K, 100.3 kPa, x1 = 0.003018	–	1.058
293.15 K, 100.3 kPa, x1 = 0.00501	–	1.095
293.15 K, 100.3 kPa, x1 = 0.006973	–	1.126
293.15 K, 100.3 kPa, x1 = 0.009052	–	1.168
293.15 K, 100.3 kPa, x1 = 0.01199	–	1.221
293.15 K, 100.3 kPa, x1 = 0.01499	–	1.277
293.15 K, 100.3 kPa, x1 = 0.017	–	1.315
293.15 K, 101 kPa, x2 = 0.03402	–	115.2
293.15 K, 101 kPa, x2 = 0.06153	–	102.2
293.15 K, 101 kPa, x2 = 0.1014	0.5	–
293.15 K, 101 kPa, x2 = 0.3977	–	26.7
298.15 K, 100 kPa, x1 = 3.988e-05	0.0281	–
298.15 K, 100 kPa, x1 = 0.0003603	–	0.917
298.15 K, 100 kPa, x1 = 0.0003729	–	0.917
298.15 K, 100 kPa, x1 = 0.0007203	–	0.951
298.15 K, 100 kPa, x1 = 0.0007257	–	0.951
298.15 K, 100 kPa, x1 = 0.00108	–	0.983
298.15 K, 100 kPa, x1 = 0.0011	–	0.983
298.15 K, 100 kPa, x2 = 0.9487	–	1.99
298.15 K, 100.3 kPa, x1 = 0.0005439	–	0.8998
298.15 K, 100.3 kPa, x1 = 0.0009901	–	0.9108
298.15 K, 100.3 kPa, x1 = 0.003018	–	0.9406
298.15 K, 100.3 kPa, x1 = 0.00501	–	0.9719
298.15 K, 100.3 kPa, x1 = 0.006973	–	0.9993
298.15 K, 100.3 kPa, x1 = 0.009052	–	1.036
298.15 K, 100.3 kPa, x1 = 0.01199	–	1.081
298.15 K, 100.3 kPa, x1 = 0.01499	–	1.128
298.15 K, 100.3 kPa, x1 = 0.017	–	1.162
298.15 K, 101 kPa, x2 = 0	0.194	116
298.15 K, 101 kPa, x2 = 0.06153	–	79.4
298.15 K, 101 kPa, x2 = 0.1036	0.274	81
298.15 K, 101 kPa, x2 = 0.1135	–	64.3
298.15 K, 101 kPa, x2 = 0.1877	0.374	59.5
298.15 K, 101 kPa, x2 = 0.2879	0.528	42.1
298.15 K, 101 kPa, x2 = 0.3977	–	22.3
298.15 K, 101 kPa, x2 = 0.4094	0.83	28.1
298.15 K, 101 kPa, x2 = 0.4954	1.21	20.8
298.15 K, 101 kPa, x2 = 0.5908	1.65	14.6
298.15 K, 101 kPa, x2 = 0.6979	2.42	9.5
298.15 K, 101 kPa, x2 = 0.7971	3.38	5.92
298.15 K, 101 kPa, x2 = 0.8493	4.79	–
298.15 K, 101 kPa, x2 = 0.8953	4.01	3.2
298.15 K, 101 kPa, x2 = 0.9496	4.83	–
303 K, 100 kPa, x1 = 0.6023	–	18.87
303.15 K, 100 kPa, x1 = 0.0003603	–	0.835
303.15 K, 100 kPa, x1 = 0.0003729	–	0.835
303.15 K, 100 kPa, x1 = 0.0007203	–	0.868
303.15 K, 100 kPa, x1 = 0.0007257	–	0.868
303.15 K, 100 kPa, x1 = 0.00108	–	0.904
303.15 K, 100 kPa, x1 = 0.0011	–	0.904
303.15 K, 100.3 kPa, x1 = 0.0005439	–	0.8079
303.15 K, 100.3 kPa, x1 = 0.0009901	–	0.8166
303.15 K, 100.3 kPa, x1 = 0.003018	–	0.8426
303.15 K, 100.3 kPa, x1 = 0.00501	–	0.87
303.15 K, 100.3 kPa, x1 = 0.006973	–	0.8927
303.15 K, 100.3 kPa, x1 = 0.009052	–	0.9275
303.15 K, 100.3 kPa, x1 = 0.01199	–	0.9648
303.15 K, 100.3 kPa, x1 = 0.01499	–	1.006
303.15 K, 100.3 kPa, x1 = 0.017	–	1.034
303.15 K, 101 kPa, x2 = 0	–	74
303.15 K, 101 kPa, x2 = 0.06153	–	63.1
303.15 K, 101 kPa, x2 = 0.9252	5.82	–
308 K, 100 kPa, x1 = 0.6023	–	16.04
308.15 K, 100 kPa, x1 = 3.988e-05	0.0349	–
308.15 K, 100 kPa, x1 = 5.584e-05	0.0437	–
308.15 K, 100 kPa, x1 = 7.98e-05	0.0658	–
308.15 K, 100 kPa, x1 = 0.0003603	–	0.751
308.15 K, 100 kPa, x1 = 0.0003729	–	0.751
308.15 K, 100 kPa, x1 = 0.0007203	–	0.789
308.15 K, 100 kPa, x1 = 0.0007257	–	0.789
308.15 K, 100 kPa, x1 = 0.00108	–	0.83
308.15 K, 100 kPa, x1 = 0.0011	–	0.83
308.15 K, 100.3 kPa, x1 = 0.0005439	–	0.7296
308.15 K, 100.3 kPa, x1 = 0.0009901	–	0.7358
308.15 K, 100.3 kPa, x1 = 0.00501	–	0.7841
308.15 K, 100.3 kPa, x1 = 0.006973	–	0.8048
308.15 K, 100.3 kPa, x1 = 0.009052	–	0.835
308.15 K, 100.3 kPa, x1 = 0.01199	–	0.8681
308.15 K, 100.3 kPa, x1 = 0.01499	–	0.9047
308.15 K, 100.3 kPa, x1 = 0.017	–	0.9282
308.15 K, 101 kPa, x2 = 0.1002	–	38.1
308.15 K, 101 kPa, x2 = 0.209	–	28.4
308.15 K, 101 kPa, x2 = 0.7002	4.24	–
313 K, 100 kPa, x1 = 0.6023	–	13.87
313.15 K, 100 kPa, x1 = 0.0003603	–	0.693
313.15 K, 100 kPa, x1 = 0.0003729	–	0.693
313.15 K, 100 kPa, x1 = 0.0007203	–	0.736
313.15 K, 100 kPa, x1 = 0.0007257	–	0.736
313.15 K, 100 kPa, x1 = 0.00108	–	0.779
313.15 K, 100 kPa, x1 = 0.0011	–	0.779
313.15 K, 100.3 kPa, x1 = 0.0005439	–	0.6614
313.15 K, 100.3 kPa, x1 = 0.0009901	–	0.6672
313.15 K, 100.3 kPa, x1 = 0.00501	–	0.7105
313.15 K, 100.3 kPa, x1 = 0.006973	–	0.7302
313.15 K, 100.3 kPa, x1 = 0.009052	–	0.7571
313.15 K, 100.3 kPa, x1 = 0.01199	–	0.7861
313.15 K, 100.3 kPa, x1 = 0.01499	–	0.8177
313.15 K, 100.3 kPa, x1 = 0.017	–	0.8403
313.15 K, 101 kPa, x2 = 0	–	46.5
313.15 K, 101 kPa, x2 = 0.1014	0.991	–
313.15 K, 101 kPa, x2 = 0.1135	–	35.01
313.15 K, 101 kPa, x2 = 0.5014	–	9
313.15 K, 101 kPa, x2 = 0.6004	–	7.4
313.15 K, 101 kPa, x2 = 0.8493	6.99	–
313.15 K, 101 kPa, x2 = 0.9744	5.57	–
318.15 K, 100 kPa, x1 = 0.0003603	–	0.638
318.15 K, 100 kPa, x1 = 0.0003729	–	0.638
318.15 K, 100 kPa, x1 = 0.0007203	–	0.681
318.15 K, 100 kPa, x1 = 0.0007257	–	0.681
318.15 K, 100 kPa, x1 = 0.00108	–	0.725
318.15 K, 100 kPa, x1 = 0.0011	–	0.725
318.15 K, 100.3 kPa, x1 = 0.0005439	–	0.6041
318.15 K, 100.3 kPa, x1 = 0.0009901	–	0.6099
318.15 K, 100.3 kPa, x1 = 0.003018	–	0.6311
318.15 K, 100.3 kPa, x1 = 0.00501	–	0.6489
318.15 K, 100.3 kPa, x1 = 0.006973	–	0.6654
318.15 K, 100.3 kPa, x1 = 0.009052	–	0.69
318.15 K, 100.3 kPa, x1 = 0.01199	–	0.7155
318.15 K, 100.3 kPa, x1 = 0.01499	–	0.7441
318.15 K, 100.3 kPa, x1 = 0.017	–	0.7642
318.15 K, 101 kPa, x2 = 0.3058	2	–
318.15 K, 101 kPa, x2 = 0.6004	–	6.4
323.15 K, 101 kPa, x2 = 0.06153	–	29.13
323.15 K, 101 kPa, x2 = 0.209	–	16.7
323.15 K, 101 kPa, x2 = 0.4001	–	8.4
323.15 K, 101 kPa, x2 = 0.8493	7.98	–
323.15 K, 101 kPa, x2 = 0.9496	8.04	–
323.15 K, 101 kPa, x2 = 0.9744	6.74	–
333.15 K, 101 kPa, x2 = 0	–	24.86
333.15 K, 101 kPa, x2 = 0.1135	–	18.67
343.15 K, 101 kPa, x2 = 0.2984	–	6.5
343.15 K, 101 kPa, x2 = 0.6004	–	3.75
343.15 K, 101 kPa, x2 = 0.7	–	2.73
343.15 K, 101 kPa, x2 = 0.8999	–	1.07
353.15 K, 101 kPa, x2 = 0.1002	–	8.6
353.15 K, 101 kPa, x2 = 0.3977	–	5.98
353.15 K, 101 kPa, x2 = 0.6004	–	3.19
363.15 K, 101 kPa, x2 = 0.03402	–	11
363.15 K, 101 kPa, x2 = 0.06153	–	10.4
363.15 K, 101 kPa, x2 = 0.2802	–	6.65
373.15 K, 101 kPa, x2 = 0	–	9.55
373.15 K, 101 kPa, x2 = 0.06153	–	8.6

electrical conductivity [S/m], 101 kPa, frequency 6e-05 MHz
Conditions	293.2 K	298.2 K	303.2 K	308.2 K	313.2 K	318.2 K	323.2 K	333.2 K	343.2 K	353.2 K
x2 = 0.2	0.897	1.026	1.16	1.3	1.45	1.59	1.75	2.1	2.49	2.94
x2 = 0.4	1.401	1.613	1.832	2.04	2.27	2.53	2.78	3.36	3.87	4.56
x2 = 0.6	2.25	2.61	2.95	3.28	3.69	4.13	4.57	5.31	6.27	7.44
x2 = 0.8	3.53	4.1	4.67	5.28	5.9	6.55	7.22	8.54	9.89	11.5
